From patent US10100019B2 come the findings set out here.

The test system of one series is H3122 cells. As to the kind of experiment: Cytotoxicity in non-small cell lung cancer cell line H3122 (SRB). It is filed as cell-based, human. On the procedure: Particularly, 4,000 H3122 cells containing ALK enzyme were distributed in each well of a 96 well plate together with 100 μl of DMEM (Dulbecco's Modified Eagle's Medium). One day later, the compound of the present invention was added to each well at different concentrations of […]. DMSO (dimethylsulfoxide) was added to the well that was not loaded with the compound by the same amount as the compound. Three days after the addition of the compound, DMEM was eliminated. 10% TCA (trichloroacetic acid) was added to fix the cells. The wells were washed with running water three times and the live cells were stained with SRB solution (1 sulphorodamine B). Then, OD was measured to calculate the population of the live cells.

The subject of the next series is H2228 cells. As to the kind of experiment: cells. The conditions noted are these: Homo sapiens, NCI-H2228, 72 h.
Where [1] appears, read: Homo sapiens, NCI-H3122, 72 h, H3122 cells, three days, SRB.
Where [2] appears, read: read-out: Cytotoxicity H2228 (GI50 μM), H2228 cells, three days, SRB.

Each structure is given as a SMILES string. Where a name gives a salt, the structure may show the parent alone. Read-outs that look alike come from different tables or passages of the source.

In the case of `CCNCCc1ccc(OC)c(Nc2ncc(Cl)c(Nc3ccccc3S(=O)(=O)C(C)C)n2)c1` [Example 13, 5-chloro-N2-(5-(2-(ethylamino)ethyl)-2-methoxyphenyl)-N4-(2-(isopropylsulfonyl)phenyl)pyrimidine-2,4-diamine], the GI50 in the series with H3122 cells (setting [1]) was 0.99 µM; with H2228 cells (setting [2]), 0.87 µM.
Take `CCN(CC)CCc1ccc(OC)c(Nc2ncc(Cl)c(Nc3ccccc3S(=O)(=O)C(C)C)n2)c1` [Example 14, 5-chloro-N2-(5-(2-(diethylamino)ethyl)-2-methoxyphenyl)-N4-(2-(isopropylsulfonyl)phenyl)pyrimidine-2,4-diamine]: the GI50 in the series on H3122 cells (H3122 cells, three days, SRB) was 0.05 µM; with H3122 cells (setting [1]), not above 0.1 µM; in the series with H2228 cells (setting [2]), 0.09 µM.
For `COc1ccc(CCNC(C)C)cc1Nc1ncc(Cl)c(Nc2ccccc2S(=O)(=O)C(C)C)n1` [Example 15, 5-chloro-N2-(5-(2-(isopropylamino)ethyl)-2-methoxyphenyl)-N4-(2-(isopropylsulfonyl)phenyl)pyrimidine-2,4-diamine], the GI50 with H3122 cells (setting [1]) came to 1.1 µM; in the series with H2228 cells (setting [2]) it was 0.78 µM.
The like results for `CCNC(=O)NCCc1ccc(OC)c(Nc2ncc(Cl)c(Nc3ccccc3S(=O)(=O)C(C)C)n2)c1` [Example 16, 1-(3-(5-chloro-4-(2-(isopropylsulfonyl)phenylamino)pyrimidine-2-ylamino)-4-methoxyphenethyl)-3-ethylurea] were, in that order, 0.41 µM and 0.52 µM.
For `COc1ccc(CCNC(=O)NC2CCCCC2)cc1Nc1ncc(Cl)c(Nc2ccccc2S(=O)(=O)C(C)C)n1` [Example 17, 1-(3-(5-chloro-4-(2-(isopropylsulfonyl)phenylamino)pyrimidine-2-ylamino)-4-methoxyphenethyl)-3-cyclohexylurea] the same measures were 0.88 µM and 2.3 µM.
Turning to `COc1ccc(CCNC(=O)Nc2ccccc2)cc1Nc1ncc(Cl)c(Nc2ccccc2S(=O)(=O)C(C)C)n1` [Example 18, 1-(3-(5-chloro-4-(2-(isopropylsulfonyl)phenylamino)pyrimidine-2-ylamino)-4-methoxyphenethyl)-3-phenylurea], the results for the GI50 in the series on H3122 cells (setting [1]) and with H2228 cells (setting [2]) were 3.6 µM and 4.9 µM, respectively.
Consider `CNC(=S)NCCc1ccc(OC)c(Nc2ncc(Cl)c(Nc3ccccc3S(=O)(=O)C(C)C)n2)c1` [Example 19, 1-(3-(5-chloro-4-(2-(isopropylsulfonyl)phenylamino)pyrimidine-2-ylamino)-4-methoxyphenethyl)-3-methylthiourea], for which the GI50 with H3122 cells (setting [1]) stood at 1.1 µM; with H2228 cells (setting [2]) it was 10 µM.
The like results for `COc1ccc(CCNC(=S)NCc2ccccc2)cc1Nc1ncc(Cl)c(Nc2ccccc2S(=O)(=O)C(C)C)n1` [Example 20, 1-benzyl-3-(3-(5-chloro-4-(2-(isopropylsulfonyl)phenylamino)pyrimidine-2-ylamino)-4-methoxyphenethyl)thiourea] were, in that order, 0.31 µM and 0.42 µM.
Take `COc1ccc(CCN2CCCCC2)cc1Nc1ncc(Cl)c(Nc2ccccc2S(=O)(=O)C(C)C)n1` [Example 21, 5-chloro-N4-(2-(isopropylsulfonyl)phenyl)-N2-(2-methoxy-5-(2-(piperidine-1-yl)ethyl)phenyl)pyrimidine-2,4-diamine]: the GI50 with H3122 cells is 0.06 µM; in the series with H3122 cells (Homo sapiens, NCI-H3122, 72 h), not above 0.1 µM; in the series with H2228 cells (read-out: Cytotoxicity H2228 (GI50 μM)) it was 0.08 µM.
With `COc1ccc(CCN2CCOCC2)cc1Nc1ncc(Cl)c(Nc2ccccc2S(=O)(=O)C(C)C)n1` [Example 22, 5-chloro-N4-(2-(isopropylsulfonyl)phenyl)-N2-(2-methoxy-5-(2-morpholinoethyl)phenyl)pyrimidine-2,4-diamine], the GI50 in the series on H3122 cells (setting [1]) came to 0.27 µM; in the series on H2228 cells (setting [2]) it was 0.46 µM.
The like results for `CCNC(=S)NCCc1ccc(OC)c(Nc2ncc(Cl)c(Nc3ccccc3S(=O)(=O)C(C)C)n2)c1` [Example 23, 1-(3-(5-chloro-4-(2-(isopropylsulfonyl)phenylamino)pyrimidine-2-ylamino)-4-methoxyphenethyl)-3-ethylthiourea] were, in that order, 1.4 µM and 2.5 µM.
`COc1ccc(CCNc2ncccn2)cc1Nc1ncc(Cl)c(Nc2ccccc2S(=O)(=O)C(C)C)n1` [Example 25, 5-chloro-N4-(2-(isopropylsulfonyl)phenyl)-N2-(2-methoxy-5-(2-(pyrimidine-2-ylamino)ethyl)phenyl)pyrimidine-2,4-diamine]: the GI50 in the series on H3122 cells (setting [1]) was determined as 1.3 µM; with H2228 cells (setting [2]), 1.5 µM.
Turning to `COC(=O)CNCCc1ccc(OC)c(Nc2ncc(Cl)c(Nc3ccccc3S(=O)(=O)C(C)C)n2)c1` [Example 26, methyl 2-(3-(5-chloro-4-(2-(isopropylsulfonyl)phenylamino)pyrimidine-2-ylamino)-4-methoxyphenethylamino)acetate], the values for the GI50 with H3122 cells (setting [1]) and in the series on H2228 cells (setting [2]) were 0.14 µM and 0.42 µM, respectively.
The like results for `COc1ccc(CCNCC(=O)O)cc1Nc1ncc(Cl)c(Nc2ccccc2S(=O)(=O)C(C)C)n1` [Example 27, 2-(3-(5-chloro-4-(2-(isopropylsulfonyl)phenylamino)pyrimidine-2-ylamino)-4-methoxyphenethylamino)acetic acid] were, in that order, 0.42 µM and 0.51 µM.
For the molecule `COc1ccc(CNC(=O)C(F)(F)F)cc1Nc1ncc(Cl)c(Nc2ccccc2S(=O)(=O)C(C)C)n1` [Example 28, N-(3-((5-chloro-4-((2-(isopropylsulfonyl)phenyl)amino)pyrimidine-2-yl)amino)-4-methoxybenzyl)-2,2,2-trifluoroacetamide], the GI50 amounted to 0.82 µM in the series with H3122 cells (setting [1]) and 0.98 µM in the series with H2228 cells (setting [2]).
In the case of `COc1ccc(CN)cc1Nc1ncc(Cl)c(Nc2ccccc2S(=O)(=O)C(C)C)n1` [Example 29, N2-(5-(aminomethyl)-2-methoxyphenyl)-5-chloro-N4-(2-(isopropylsulfonyl)phenyl)pyrimidine-2,4-diamine], the GI50 was found to be 0.1 µM in the series with H3122 cells (setting [1]) and 0.14 µM in the series on H2228 cells (setting [2]).
For `COc1ccc(CCNC(=O)C(F)(F)F)cc1Nc1ncc(Cl)c(Nc2ccccc2S(=O)(=O)C(C)C)n1` [Example 30, N-(3-(5-chloro-4-(2-(isopropylsulfonyl)phenylamino)pyrimidine-2-ylamino)-4-methoxyphenethyl)-2,2,2-trifluoroacetamide] the same measures were 0.48 µM and 0.76 µM.
For `CC(C)Oc1ccc(CCN)cc1Nc1ncc(Cl)c(Nc2ccccc2S(=O)(=O)C(C)C)n1` [Example 31, N2-(5-(2-aminoethyl)-2-isopropoxyphenyl)-5-chloro-N4-(2-(isopropylsulfonyl)phenyl)pyrimidine-2,4-diamine] the same measures were 0.7 µM and 0.51 µM.
As to `COc1ccc(CCN)cc1Nc1ncc(Cl)c(Nc2ccc(F)cc2S(=O)(=O)C(C)C)n1` [Example 32, N2-(5-(2-aminoethyl)-2-methoxyphenyl)-5-chloro-N4-(4-fluoro-2-(isopropylsulfonyl)phenyl)pyrimidine-2,4-diamine], the figures for the GI50 in the series with H3122 cells (setting [1]) and in the series on H2228 cells (setting [2]) were 0.71 µM and 0.64 µM, respectively.
As for `COc1ccc(CCN)cc1Nc1ncc(Cl)c(Nc2cc(F)ccc2S(=O)(=O)C(C)C)n1` [Example 33, N2-(5-(2-aminoethyl)-2-methoxyphenyl)-5-chloro-N4-(5-fluoro-2-(isopropylsulfonyl)phenyl)pyrimidine-2,4-diaminehydrochloride], the GI50 in the series on H3122 cells (H3122 cells, three days, SRB) came to 10 µM; with H2228 cells (setting [2]) it was 10 µM.
Turning to `COc1ccc(CCN)cc1Nc1ncc(Cl)c(Nc2c(F)cccc2S(=O)(=O)C(C)C)n1` [Example 34, N2-(5-(2-aminoethyl)-2-methoxyphenyl)-5-chloro-N4-(2-fluoro-6-(isopropylsulfonyl)phenyl)pyrimidine-2,4-diaminehydrochloride], the 50% growth inhibitory concentration (GI50) in the series with H3122 cells (setting [1]) stood at 2.2 µM; with H2228 cells (setting [2]), 2.3 µM.
For `COc1ccc(C(C)(C)CN)cc1Nc1ncc(Cl)c(Nc2ccccc2S(=O)(=O)C(C)C)n1` [Example 35, N2-(5-(1-amino-2-methylpropane-2-yl)-2-methoxyphenyl)-5-chloro-N4-(2-(isopropylsulfonyl)phenyl)pyrimidine-2,4-diamine] the same measures were 1.6 µM and 1.6 µM.
For `COc1ccc(C(C)(C)CN)cc1Nc1ncc(Cl)c(Nc2ccc(F)cc2S(=O)(=O)C(C)C)n1` [Example 36, N2-(5-(1-amino-2-methylpropane-2-yl)-2-methoxyphenyl)-5-chloro-N4-(4-fluoro-2-(isopropylsulfonyl)phenyl)pyrimidine-2,4-diamine], the GI50 in the series on H3122 cells (H3122 cells, three days, SRB) came out at 10 µM; with H2228 cells (setting [2]) it was 10 µM.
Turning to `COc1ccc(C(C)(C)CN)cc1Nc1ncc(Cl)c(Nc2cc(F)ccc2S(=O)(=O)C(C)C)n1` [Example 37, N2-(5-(1-amino-2-methylpropane-2-yl)-2-methoxyphenyl)-5-chloro-N4-(5-fluoro-2-(isopropylsulfonyl)phenyl)pyrimidine-2,4-diamine], the GI50 was 10 µM in the series with H3122 cells (H3122 cells, three days, SRB) and 10 µM in the series with H2228 cells (setting [2]).
As to `COc1ccc(C(C)(C)CN)cc1Nc1ncc(Cl)c(Nc2c(F)cccc2S(=O)(=O)C(C)C)n1` [Example 38, N2-(5-(1-amino-2-methylpropane-2-yl)-2-methoxyphenyl)-5-chloro-N4-(2-fluoro-6-(isopropylsulfonyl)phenyl)pyrimidine-2,4-diamine], the GI50 in the series on H3122 cells (H3122 cells, three days, SRB) was 10 µM; in the series on H2228 cells (setting [2]), 10 µM.

One may read the GI50 as the concentration that inhibits growth by half.
